Values joined by “and” are separate entries in the source; they are usually repeats but may differ in a detail not shown here. Identical values can stand only once. Numbers after ± are expanded uncertainties.
How the values were obtained:
[1] = xn = mol fraction of the nth substance listed; conditions: 100 kPa, Liquid, x2 = 0; for viscosity: Capillary tube (Ostwald / Ubbelohde) method; for mass density: Vibrating tube method
[2] = 293.15 K; 100 kPa; Liquid; Capillary tube (Ostwald / Ubbelohde) method
[3] = 293.15 K; 100 kPa; Liquid; Vibrating tube method
[4] = 298.15 K; 100 kPa; Liquid; Capillary tube (Ostwald / Ubbelohde) method
[5] = 298.15 K; 100 kPa; Liquid; Vibrating tube method
[6] = 303.15 K; 100 kPa; Liquid; Capillary tube (Ostwald / Ubbelohde) method
[7] = 303.15 K; 100 kPa; Liquid; Vibrating tube method
[8] = 308.15 K; 100 kPa; Liquid; Capillary tube (Ostwald / Ubbelohde) method
[9] = 308.15 K; 100 kPa; Liquid; Vibrating tube method
[10] = 313.15 K; 100 kPa; Liquid; Capillary tube (Ostwald / Ubbelohde) method
[11] = 313.15 K; 100 kPa; Liquid; Vibrating tube method
[12] = 318.15 K; 100 kPa; Liquid; Capillary tube (Ostwald / Ubbelohde) method
[13] = 318.15 K; 100 kPa; Liquid; Vibrating tube method
[14] = 323.15 K; 100 kPa; Liquid; Capillary tube (Ostwald / Ubbelohde) method
[15] = 323.15 K; 100 kPa; Liquid; Vibrating tube method

For `CCCCn1cc[n+](C)c1C.O=S(=O)([N-]S(=O)(=O)C(F)(F)F)C(F)(F)F`, which viscosity [2] is on record?
The viscosity was 133.59 ± 3.4 mPa·s.

What about the mass density [3] of the same molecule?
The mass density was 1423.72 ± 11 kg/m3.

And the viscosity [4]?
Its viscosity is 101.34 ± 2.4 mPa·s.

What about the mass density [5] of the same molecule?
Its mass density is 1419.13 ± 11 kg/m3.

What about the viscosity [6] of the same molecule?
The viscosity was 77.86 ± 1.7 mPa·s.

What about the mass density [7] of the same molecule?
Its mass density is 1414.52 ± 11 kg/m3.

And the viscosity [8]?
The viscosity was 61.73 ± 1.3 mPa·s.

What about the mass density [9] of the same molecule?
The mass density was 1409.91 ± 11 kg/m3.

What about the viscosity [10] of the same molecule?
Its viscosity is 49.77 ± 1 mPa·s.

What about the mass density [11] of the same molecule?
The mass density was 1405.31 ± 11 kg/m3.

And the viscosity [12]?
Its viscosity is 40.7 ± 0.85 mPa·s.

And the mass density [13]?
The mass density was 1400.7 ± 11 kg/m3.

And the viscosity [14]?
Its viscosity is 33.69 ± 0.71 mPa·s.

And the mass density [15]?
Its mass density is 1396.13 ± 11 kg/m3.

For `CCC[n+]1ccn(C)c1C.O=S(=O)([N-]S(=O)(=O)C(F)(F)F)C(F)(F)F`, which viscosity [2] is on record?
The viscosity was 121.7 ± 3 mPa·s.

What about the mass density [3] of the same molecule?
Its mass density is 1459.14 ± 12 kg/m3.

And the viscosity [4]?
The viscosity was 92.8 ± 2.1 mPa·s.

What about the mass density [5] of the same molecule?
The mass density was 1454.44 ± 12 kg/m3.

What about the viscosity [6] of the same molecule?
Its viscosity is 72.1 ± 1.6 mPa·s and 71.1 ± 1.5 mPa·s.

What about the mass density [7] of the same molecule?
The mass density was 1449.72 ± 12 kg/m3.

What about the viscosity [8] of the same molecule?
The viscosity was 57.76 ± 1.2 mPa·s.

What about the mass density [9] of the same molecule?
The mass density was 1445 ± 12 kg/m3.

And the viscosity [10]?
The viscosity was 46.53 ± 0.98 mPa·s.

What about the mass density [11] of the same molecule?
Its mass density is 1440.28 ± 12 kg/m3.

What about the viscosity [12] of the same molecule?
The viscosity was 38.4 ± 0.81 mPa·s.

What about the mass density [13] of the same molecule?
The mass density was 1435.57 ± 11 kg/m3.

And the viscosity [14]?
The viscosity was 31.89 ± 0.67 mPa·s.

What about the mass density [15] of the same molecule?
Its mass density is 1430.87 ± 11 kg/m3.

With `CCn1cc[n+](C)c1C.O=S(=O)([N-]S(=O)(=O)C(F)(F)F)C(F)(F)F` as the molecule, how does the viscosity (293.15 K; 100 kPa; Metastable liquid; Capillary tube (Ostwald / Ubbelohde) method) read?
Its viscosity is 89.27 ± 2 mPa·s.

And the mass density (293.15 K; 100 kPa; Metastable liquid; Vibrating tube method)?
The mass density was 1496.32 ± 12 kg/m3.

What about the viscosity (298.15 K; 100 kPa; Metastable liquid; Capillary tube (Ostwald / Ubbelohde) method) of the same molecule?
The viscosity was 70.77 ± 1.5 mPa·s.

And the mass density (298.15 K; 100 kPa; Metastable liquid; Vibrating tube method)?
The mass density was 1491.47 ± 12 kg/m3.

What about the viscosity (303.15 K; 100 kPa; Capillary tube (Ostwald / Ubbelohde) method; Liquid) of the same molecule?
The viscosity was 57.02 ± 1.2 mPa·s.

And the mass density (303.15 K; 100 kPa; Vibrating tube method; Liquid)?
The mass density was 1486.67 ± 12 kg/m3.

And the viscosity (308.15 K; 100 kPa; Capillary tube (Ostwald / Ubbelohde) method; Liquid)?
The viscosity was 46.6 ± 0.98 mPa·s.

And the mass density (308.15 K; 100 kPa; Vibrating tube method; Liquid)?
Its mass density is 1481.87 ± 12 kg/m3.

And the viscosity (313.15 K; 100 kPa; Capillary tube (Ostwald / Ubbelohde) method; Liquid)?
Its viscosity is 38.62 ± 0.81 mPa·s.

What about the mass density (313.15 K; 100 kPa; Vibrating tube method; Liquid) of the same molecule?
The mass density was 1477.09 ± 12 kg/m3.

What about the viscosity (318.15 K; 100 kPa; Capillary tube (Ostwald / Ubbelohde) method; Liquid) of the same molecule?
Its viscosity is 32.33 ± 0.68 mPa·s.

What about the mass density (318.15 K; 100 kPa; Vibrating tube method; Liquid) of the same molecule?
The mass density was 1472.32 ± 12 kg/m3.

What about the viscosity (323.15 K; 100 kPa; Capillary tube (Ostwald / Ubbelohde) method; Liquid) of the same molecule?
The viscosity was 27.06 ± 0.57 mPa·s.

What about the mass density (323.15 K; 100 kPa; Vibrating tube method; Liquid) of the same molecule?
Its mass density is 1467.56 ± 12 kg/m3.

For `O=C1CCCO1` [γ-butyrolactone] + CCCCn1cc[n+](C)c1C.O=S(=O)([N-]S(=O)(=O)C(F)(F)F)C(F)(F)F, which viscosity ([1]; 293.15 K) is on record?
Its viscosity is 1.86 ± 0.04 mPa·s.

And the mass density ([1]; 293.15 K)?
The mass density was 1129.49 ± 9 kg/m3.

And the viscosity ([1]; 298.15 K)?
The viscosity was 1.71 ± 0.04 mPa·s.

What about the mass density ([1]; 298.15 K) of the same molecule?
The mass density was 1124.59 ± 9 kg/m3.

What about the viscosity ([1]; 303.15 K) of the same molecule?
The viscosity was 1.58 ± 0.03 mPa·s.

What about the mass density ([1]; 303.15 K) of the same molecule?
The mass density was 1119.68 ± 9 kg/m3.

What about the viscosity ([1]; 308.15 K) of the same molecule?
Its viscosity is 1.47 ± 0.03 mPa·s.

And the mass density ([1]; 308.15 K)?
The mass density was 1114.78 ± 8.9 kg/m3.

What about the viscosity ([1]; 313.15 K) of the same molecule?
Its viscosity is 1.37 ± 0.03 mPa·s.

And the mass density ([1]; 313.15 K)?
The mass density was 1109.87 ± 8.9 kg/m3.

What about the viscosity ([1]; 318.15 K) of the same molecule?
The viscosity was 1.28 ± 0.03 mPa·s.

And the mass density ([1]; 318.15 K)?
Its mass density is 1104.96 ± 8.8 kg/m3.

What about the viscosity ([1]; 323.15 K) of the same molecule?
The viscosity was 1.2 ± 0.03 mPa·s.

What about the mass density ([1]; 323.15 K) of the same molecule?
Its mass density is 1100.05 ± 8.8 kg/m3.

Which viscosity ([1]; 293.15 K) does the source give for `O=C1CCCO1` [γ-butyrolactone] + CCC[n+]1ccn(C)c1C.O=S(=O)([N-]S(=O)(=O)C(F)(F)F)C(F)(F)F here?
Its viscosity is 1.86 ± 0.04 mPa·s.

What about the mass density ([1]; 293.15 K) of the same molecule?
The mass density was 1129.49 ± 9 kg/m3.

And the viscosity ([1]; 298.15 K)?
The viscosity was 1.71 ± 0.04 mPa·s.

And the mass density ([1]; 298.15 K)?
The mass density was 1124.59 ± 9 kg/m3.

What about the viscosity ([1]; 303.15 K) of the same molecule?
Its viscosity is 1.58 ± 0.03 mPa·s.

And the mass density ([1]; 303.15 K)?
Its mass density is 1119.68 ± 9 kg/m3.

And the viscosity ([1]; 308.15 K)?
The viscosity was 1.47 ± 0.03 mPa·s.

What about the mass density ([1]; 308.15 K) of the same molecule?
The mass density was 1114.78 ± 8.9 kg/m3.

What about the viscosity ([1]; 313.15 K) of the same molecule?
Its viscosity is 1.37 ± 0.03 mPa·s.

What about the mass density ([1]; 313.15 K) of the same molecule?
Its mass density is 1109.87 ± 8.9 kg/m3.

And the viscosity ([1]; 318.15 K)?
Its viscosity is 1.28 ± 0.03 mPa·s.

What about the mass density ([1]; 318.15 K) of the same molecule?
Its mass density is 1104.96 ± 8.8 kg/m3.

And the viscosity ([1]; 323.15 K)?
Its viscosity is 1.2 ± 0.03 mPa·s.

What about the mass density ([1]; 323.15 K) of the same molecule?
The mass density was 1100.05 ± 8.8 kg/m3.

With `O=C1CCCO1` [γ-butyrolactone] + CCn1cc[n+](C)c1C.O=S(=O)([N-]S(=O)(=O)C(F)(F)F)C(F)(F)F as the molecule, how does the viscosity ([1]; 293.15 K) read?
The viscosity was 1.86 ± 0.04 mPa·s.

What about the mass density ([1]; 293.15 K) of the same molecule?
Its mass density is 1129.49 ± 9 kg/m3.

What about the viscosity ([1]; 298.15 K) of the same molecule?
Its viscosity is 1.71 ± 0.04 mPa·s.

And the mass density ([1]; 298.15 K)?
The mass density was 1124.59 ± 9 kg/m3.

And the viscosity ([1]; 303.15 K)?
Its viscosity is 1.58 ± 0.03 mPa·s.

And the mass density ([1]; 303.15 K)?
The mass density was 1119.68 ± 9 kg/m3.

What about the viscosity ([1]; 308.15 K) of the same molecule?
The viscosity was 1.47 ± 0.03 mPa·s.

And the mass density ([1]; 308.15 K)?
Its mass density is 1114.78 ± 8.9 kg/m3.

And the viscosity ([1]; 313.15 K)?
Its viscosity is 1.37 ± 0.03 mPa·s.

And the mass density ([1]; 313.15 K)?
Its mass density is 1109.87 ± 8.9 kg/m3.

And the viscosity ([1]; 318.15 K)?
Its viscosity is 1.28 ± 0.03 mPa·s.

And the mass density ([1]; 318.15 K)?
Its mass density is 1104.96 ± 8.8 kg/m3.

And the viscosity ([1]; 323.15 K)?
The viscosity was 1.2 ± 0.03 mPa·s.

And the mass density ([1]; 323.15 K)?
Its mass density is 1100.05 ± 8.8 kg/m3.
